{"source": "PubChem BioAssay AID192", "about": "(DTP/NCI, 2004)", "tested_on": "BDF1 mice, B16 melanoma ip, median survival T/C", "test": "NCI In Vivo Anticancer Drug Screen. Data for tumor model B16 Melanoma (intraperitoneal) in B6D2F1 (BDF1) mice", "details": "endpoint: median survival time, higher = longer survival", "outline": "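Read-out: survival or tumor size, given as treated/control ratio. Controls received vehicle only; animals bore transplantable tumors.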", "key": {"[1]": {"details": "dose: 12.5 mg/kg/injection, schedule: Q01DX009 (ip), vehicle: saline with Tween-80"}, "[2]": {"details": "dose: 25.0 mg/kg/injection, schedule: Q01DX009 (ip), vehicle: saline with Tween-80"}, "[3]": {"details": "dose: 50.0 mg/kg/injection, schedule: Q01DX009 (ip), vehicle: saline with Tween-80"}, "[4]": {"details": "dose: 25.0 mg/kg/injection, schedule: Q01DX009 (ip), vehicle: saline"}, "[5]": {"details": "dose: 50.0 mg/kg/injection, schedule: Q01DX009 (ip), vehicle: saline"}, "[6]": {"details": "dose: 100.0 mg/kg/injection, schedule: Q01DX009 (ip), vehicle: saline"}, "[7]": {"details": "dose: 25.0 mg/kg/injection, schedule: Q01DX009 (ip), vehicle: Klucel (hydroxypropylcellulose) (HPC)"}, "[8]": {"details": "dose: 50.0 mg/kg/injection, schedule: Q01DX009 (ip), vehicle: Klucel (hydroxypropylcellulose) (HPC)"}, "[9]": {"details": "dose: 100.0 mg/kg/injection, schedule: Q01DX009 (ip), vehicle: Klucel (hydroxypropylcellulose) (HPC)"}, "[10]": {"details": "dose: 200.0 mg/kg/injection, schedule: Q01DX009 (ip), vehicle: Klucel (hydroxypropylcellulose) (HPC)"}}, "note": "“And” between values parts separate entries of the source, which are not always exact repeats. Identical values can stand only once. Toxic doses and inconclusive results are not listed."}
{"smiles": "CCCn1cnc2c(=S)nc[nH]c21", "values": [{"measurement": "T/C", "setting": "[1]", "value": "120 % of control"}, {"measurement": "T/C", "setting": "[2]", "value": "116 % of control"}, {"measurement": "T/C", "setting": "[3]", "value": "106 % of control"}]}
{"smiles": "COc1ccc2c3c1OC1C4(CCC5C(C2)N(CC2CC2)CCC351)OCCO4", "note": "(centres undefined)", "values": [{"measurement": "T/C", "setting": "[4]", "value": "97 % of control"}, {"measurement": "T/C", "setting": "[5]", "value": "97 % of control"}, {"measurement": "T/C", "setting": "[6]", "value": "90 % of control"}]}
{"smiles": "FC(F)(F)c1ccc2c(c1)N(CCCN1CCN(CCC3OCCCO3)CC1)c1ccccc1S2", "values": [{"measurement": "T/C", "setting": "dose: 0.78 mg/kg/injection, schedule: Q01DX009 (ip), vehicle: saline", "value": "116 % of control"}, {"measurement": "T/C", "setting": "dose: 1.56 mg/kg/injection, schedule: Q01DX009 (ip), vehicle: saline", "value": "118 % of control"}, {"measurement": "T/C", "setting": "dose: 3.12 mg/kg/injection, schedule: Q01DX009 (ip), vehicle: saline", "value": "90 % of control"}, {"measurement": "T/C", "setting": "dose: 6.25 mg/kg/injection, schedule: Q01DX009 (ip), vehicle: saline", "value": "115 % of control"}]}
{"smiles": "O=C(O)c1ccc(OC(F)(F)C(F)Cl)cc1", "note": "(centres undefined)", "values": [{"measurement": "T/C", "setting": "[7]", "value": "106 % of control"}, {"measurement": "T/C", "setting": "[8]", "value": "100 % of control"}, {"measurement": "T/C", "setting": "[9]", "value": "106 % of control"}]}
{"smiles": "O=C(Cl)c1ccc(OC(Cl)(Cl)Cl)cc1", "values": [{"measurement": "T/C", "setting": "[9]", "value": "100 % of control"}, {"measurement": "T/C", "setting": "[10]", "value": "93 % of control"}, {"measurement": "T/C", "setting": "dose: 400.0 mg/kg/injection, schedule: Q01DX009 (ip), vehicle: Klucel (hydroxypropylcellulose) (HPC)", "value": "86 % of control"}]}
{"smiles": "CC(=O)CC(C)=O.CC(=O)CC(C)=O.[Co]", "values": [{"measurement": "T/C", "setting": "dose: 6.25 mg/kg/injection, schedule: Q01DX009 (ip), vehicle: saline with Tween-80", "value": "97 % of control"}, {"measurement": "T/C", "setting": "[1]", "value": "102 % of control"}, {"measurement": "T/C", "setting": "[2]", "value": "91 % of control"}]}
{"smiles": "COc1cccc(Cc2ccncc2)c1OC", "values": [{"measurement": "T/C", "setting": "dose: 25.0 mg/kg/injection, schedule: Q01DX009 (ip), vehicle: water", "value": "104 % of control"}, {"measurement": "T/C", "setting": "dose: 50.0 mg/kg/injection, schedule: Q01DX009 (ip), vehicle: water", "value": "98 % of control"}, {"measurement": "T/C", "setting": "dose: 100.0 mg/kg/injection, schedule: Q01DX009 (ip), vehicle: water", "value": "98 % of control"}]}
{"smiles": "CSc1sc2ccccc2[n+]1C", "values": [{"measurement": "T/C", "setting": "[4]", "value": "100 % of control"}, {"measurement": "T/C", "setting": "[5]", "value": "98 % of control"}, {"measurement": "T/C", "setting": "[6]", "value": "91 % of control"}]}
{"smiles": "CC(=O)Oc1ccc(Nc2c3ccccc3nc3ccccc23)cc1", "values": [{"measurement": "T/C", "setting": "dose: 1.87 mg/kg/injection, schedule: Q01DX009 (ip), vehicle: saline with Tween-80", "value": "110 % of control"}, {"measurement": "T/C", "setting": "dose: 3.75 mg/kg/injection, schedule: Q01DX009 (ip), vehicle: saline with Tween-80", "value": "114 % of control"}, {"measurement": "T/C", "setting": "dose: 7.5 mg/kg/injection, schedule: Q01DX009 (ip), vehicle: saline with Tween-80", "value": "121 % of control"}, {"measurement": "T/C", "setting": "dose: 29.3 mg/kg/injection, schedule: Q01DX009 (ip), vehicle: saline with Tween-80", "value": "197 % of control"}, {"measurement": "T/C", "setting": "dose: 30.0 mg/kg/injection, schedule: Q01DX009 (ip), vehicle: saline with Tween-80", "value": "156 % of control and 158 % of control"}, {"measurement": "T/C", "setting": "dose: 40.0 mg/kg/injection, schedule: Q01DX009 (ip), vehicle: saline with Tween-80", "value": "150 % of control"}]}
{"smiles": "CCN(C(=O)c1cccc(C(=O)N(CC)c2ccccc2C)c1)c1ccccc1C", "values": [{"measurement": "T/C", "setting": "[8]", "value": "101 % of control"}, {"measurement": "T/C", "setting": "[9]", "value": "98 % of control"}, {"measurement": "T/C", "setting": "[10]", "value": "102 % of control"}]}
{"smiles": "C[C@@H]1C[C@@]2(C)[C@@H](CC[C@@H]3[C@@H]2CC[C@]2(C)[C@@H](OC4CCCCO4)CC[C@@H]32)CC1=O", "note": "(some centres undefined)", "values": [{"measurement": "T/C", "setting": "[7]", "value": "105 % of control"}, {"measurement": "T/C", "setting": "[8]", "value": "100 % of control"}, {"measurement": "T/C", "setting": "[9]", "value": "100 % of control"}]}
{"smiles": "CCC(=O)NC1=C(N2CC2)C(=O)C(NC(=O)CC)=C(N2CC2)C1=O", "values": [{"measurement": "T/C", "setting": "dose: 0.5 mg/kg/injection, schedule: Q01DX009 (ip), vehicle: saline", "value": "107 % of control"}, {"measurement": "T/C", "setting": "dose: 1.0 mg/kg/injection, schedule: Q01DX009 (ip), vehicle: saline", "value": "107 % of control"}, {"measurement": "T/C", "setting": "dose: 2.0 mg/kg/injection, schedule: Q01DX009 (ip), vehicle: saline", "value": "113 % of control"}]}
{"smiles": "CCCC(=O)OCC1OC(n2cnc3c(=S)nc[nH]c32)C(OC(=O)CCC)C1OC(=O)CCC", "note": "(centres undefined)", "values": [{"measurement": "T/C", "setting": "[2]", "value": "105 % of control"}, {"measurement": "T/C", "setting": "[3]", "value": "90 % of control"}]}
{"smiles": "NCCc1c[nH]c2ccccc12", "values": [{"measurement": "T/C", "setting": "dose: 100.0 mg/kg/injection, schedule: Q04DX003 (ip), vehicle: saline", "value": "120 % of control"}, {"measurement": "T/C", "setting": "dose: 200.0 mg/kg/injection, schedule: Q04DX003 (ip), vehicle: saline", "value": "112 % of control"}]}
{"smiles": "CCN(C(=O)Nc1cccc(Cl)c1)c1ccccc1", "values": [{"measurement": "T/C", "setting": "dose: 100.0 mg/kg/injection, schedule: Q01DX009 (ip), vehicle: saline with Tween-80", "value": "102 % of control"}, {"measurement": "T/C", "setting": "dose: 200.0 mg/kg/injection, schedule: Q01DX009 (ip), vehicle: saline with Tween-80", "value": "100 % of control"}, {"measurement": "T/C", "setting": "dose: 400.0 mg/kg/injection, schedule: Q01DX009 (ip), vehicle: saline with Tween-80", "value": "110 % of control"}]}
{"smiles": "Cc1ccc(NC(=O)c2ccccc2C(=O)O)cc1Cl", "values": [{"measurement": "T/C", "setting": "[9]", "value": "94 % of control"}, {"measurement": "T/C", "setting": "[10]", "value": "94 % of control"}]}
